Data on nine molecules can be found in ChEMBL document CHEMBL1135811, “4-(Phenylsulfonyl)piperidines: novel, selective, and bioavailable 5-HT(2A) receptor antagonists” (J Med Chem, 2002).

Common to all, as to assay type: ADME, organism-based
The nature of data set [1]: Mean residence time following intravenous dosing. Particulars: in vivo.
Data set [2] is described as follows: Bioavailability. Particulars: eutheria, in vivo.
The nature of data set [3]: Area under concentration-time curve for 0-4 hr after oral dose of 10 mg/kg. Particulars: in vivo. More on the design: time < 4 hr, dose 10 mg/kg, route oral.
A short description of data set [4]: Maximum blood concentration after oral dose of 10 mg/kg. More on the design: dose 10 mg/kg, route oral.
The nature of data set [5]: Maximum blood concentration after oral dose of 2.0 mg/kg. Set-up: dose 2 mg/kg, route oral.
The nature of data set [6]: Area under concentration-time curve for 0-4 hr after oral dose of 2.0 mg/kg. Set-up: time < 4 hr, dose 2 mg/kg, route oral. Particulars: in vivo.
Data set [7] can be described thus: (§1) Area under concentration-time curve for 0-4 hr after oral dose of […]. The note with it: in vivo. More on the design: time < 4 hr, dose 1.5 mg/kg, route oral.
Data set [8] can be described thus: (§2) Maximum blood concentration after oral dose of […]. Set-up: dose 1.5 mg/kg, route oral.
The nature of data set [9]: Maximum blood concentration after oral dose 1 mg/kg. More on the design: dose 1 mg/kg, route oral.
The nature of data set [10]: Area under concentration-time curve for 0-4 hr after oral dose 1 mg/kg. The note with it: in vivo. More on the design: time < 4 hr, dose 1 mg/kg, route oral.
The nature of data set [11]: as §2. More on the design: dose 1.2 mg/kg, route oral.
Data set [12] in a line: as §1. Set-up: time < 4 hr, dose 1.2 mg/kg, route oral. The note with it: in vivo.

SMILES strings stand for the structures.

Regarding `O=S(=O)(c1ccccc1)C1CCN(CCc2ccc(F)cc2F)CC1`, the MRT in data set [1] is 1 h. This molecule gave a bioavailability in data set [2] of 2%. This molecule yielded an AUC(0-t) at 4 h in data set [3] of 100 ng·h/mL. In addition, in data set [4], the Cmax came out at 23 ng/mL.

Consider `OC1c2ccccc2CCC12CCN(CCc1ccccc1)CC2` (stereo unspecified), for which the concentration in [5] peaked (Cmax) at 2 ng/mL. In [6], this molecule had an AUC(0-t) at 4 h of 3 ng·h/mL.

With `COc1ccc2c(c1)CCC1(CCN(CCc3ccc(F)cc3F)CC1)O2`, the AUC(0-t) at 4 h in [7] was 4 ng·h/mL. The molecule also gave an MRT in [1] of 1.5 h. Moreover, the Cmax in [8] worked out at 2 ng/mL.

In [1], `NC(=O)c1cccc(S(=O)(=O)C2CCN(CCc3ccc(F)cc3F)CC2)c1` returned an MRT of 1.1 h. Besides, the bioavailability in data set [2] worked out at 24%. This molecule came in with a Cmax in [9] of 38 ng/mL. This molecule also showed an AUC(0-t) at 4 h in [10] of 115 ng·h/mL.

The molecule `O=S1(=O)c2ccccc2CCC12CCN(CCc1ccc(F)cc1F)CC2` registered a Cmax in data set [5] of 1 ng/mL. In addition, the AUC(0-t) at 4 h in [6] is 1 ng·h/mL.

`O=C(CN1CCC(S(=O)(=O)c2ccccc2)CC1)c1ccc(F)cc1` registered an MRT in data set [1] of 0.7 h. The bioavailability in [2] came out at 30%. This molecule also came in with a Cmax in [9] of 140 ng/mL. Also, the AUC(0-t) at 4 h in [10] amounted to 171 ng·h/mL.

As for `NC(=O)c1ccc(S(=O)(=O)C2CCN(CCc3ccc(F)cc3F)CC2)cc1`, the MRT in [1] was 0.9 h. Besides, the bioavailability in data set [2] is 22%. In data set [9], this molecule came in with a Cmax of 70 ng/mL. Moreover, the AUC(0-t) at 4 h in data set [10] stood at 199 ng·h/mL.

In [1], `N#Cc1ccc(S(=O)(=O)C2CCN(CCc3ccc(F)cc3F)CC2)cc1` gave a mean residence time (MRT) of 2.3 h. In data set [2], this molecule showed a bioavailability of 23%. Moreover, the highest level in [9] (Cmax) was 30 ng/mL. In addition, the AUC(0-t) at 4 h in data set [10] came out at 177 ng·h/mL.

Turning to `COc1cccc([C@H](O)C2CCN(CCc3ccc(F)cc3)CC2)c1OC` [VOLINANSERIN], the Cmax in data set [11] came out at 2 ng/mL. The molecule further showed an AUC(0-t) at 4 h in data set [12] of 8 ng·h/mL. Moreover, in data set [1], the MRT came to 1 h. Also, in [2], the bioavailability worked out at 3%.

By MRT is commonly meant a mean duration of stay, worked out from the concentration-time curve. The term bioavailability denotes the share of a dose that reaches the circulation, judged against a reference dose that is usually intravenous. Higher therefore signals much systemic uptake. In general, AUC(0-t) refers to the area under the concentration-time curve up to a stated or last time point. Read a low AUC(0-t) as less exposure. A word on the Cmax: it is the maximum level reached in the sampled fluid or tissue.
